Laboratory results: PMC6440464 (PeerJ, 2019)
Where two headings read alike, the source gives them in different places.

Assays:
[1] = Pharmacokinetics study after separate oral administration in rats (HPLC-MS of plasma); assay type: in vivo, Sprague-Dawley rats; conditions: for AUC(0-t) / MRT last / Tmax / CL/F / Cmax / half-life: po; for Tmax: read-out: Tmax (converted); for CL/F: read-out: CLz/F; for Cmax: read-out: Cmax; for half-life: read-out: t1/2z
Protocol: A total of 15 SPF Sprague-Dawley rats (SD, male, 190–210 g) were provided by Sino-British Sippr/BK Lab Animal Company Ltd. (Shanghai, China). The rats were kept in standard conditions (22–26 °C; 40–60% relative humidity; 12 h light/dark cycle). Throughout the rearing period, the animals had access to food and water ad libitum. Animal experiments were conducted in accordance with the standard ethical guidelines of the Laboratory Animal Management Committee of Jiangsu Province (SYXK (SU) 2016-0011).
Following 1 week of adaptation, the rats were fasted for about 12 h before dosing, with free access to water. […] After administration of the first dose, blood samples were taken from the retro-orbital vein at 0, 5, 15, 30, 60, 90, 120, 180, 240, 360, 480, and 1,440 min and collected in heparinized tubes. The samples were centrifuged at 3,500 rpm for 10 min at 4 °C and the plasma was stored at −80 °C until analysis.
An Agilent 1,200 series HPLC system (Agilent Technologies, Waldbronn, Germany) equipped with a quaternary pump on-line degasser, auto-sampler and column oven, and an SL G1946D quadruple mass spectrometer (Agilent Technologies, Santa Clara, CA, USA) equipped with an electrospray ionization (ESI) source, were used for separation and detection. Data were acquired and analyzed using Agilent ChemStation Software Version A.01.00 (Agilent Technologies, Santa Clara, CA, USA).
The separation was carried out with an Amethyst C18-H column (150 × 4.6 mm, 5 μm, Sepax Technologies, Newark, DE, USA) with a guard column SB-C18 (10 × 4.6 mm, 5 μm, Phenomenex Technologies, Torrance, USA) at a constant temperature of 25 °C.
The mass spectra were acquired using ESI interfaced to a single quadrupole mass spectrometer. The ionization conditions were as follows: drying gas (N2) flow rate of 11 L/min, drying gas temperature of 350 °C, nebulizing gas (N2) pressure of 35 psi, capillary voltage of 3,500 V, quad temperature of 100 °C, and fragment voltage of 110 V. A series of m/z were monitored using a timed program according to the retention times and characteristic ions for the corresponding HPLC-MS peak obtained by scanning from m/z 100–1,000 in the standard sample.
Briefly, an aliquot of plasma sample (100 μL) was spiked with 5% formic acid (10 μL) in centrifuge tube. Subsequently, hydrochloric acid (2 mol/L, 10 μL) and IS solution (960.00 ng/mL, 20 μL) were added. Then ethyl acetate/n-butyl alcohol (1:1 v/v; 1,000 μL) was used to extract the components. The samples were then homogenized by vortex mixing and centrifuged for 10 min at 14,000 rpm. After centrifugation, 800 μL of supernatant was transferred to another centrifuge tube and the sample was evaporated to dryness. The residues were dissolved in 100 μL of methanol and centrifuged for 10 min at 12,000 rpm. 50 μL of the supernatant was transferred to the vial and an aliquot of 5 μL was injected into the HPLC-MS system for analysis.
DAS 2.0 (Chinese Pharmacological Association, Shanghai, China) was used to calculate the pharmacokinetic parameters using the non-compartment model, including the area under curve (AUC), mean residence time (MRT), half-life ( t1/2z), clearance rate (CL), maximum plasma concentration (Cmax), and time (Tmax). All results are expressed as mean ± standard deviation (SD). One way analysis of variance followed by […] was used for comparison of different groups using Graph pad prism 5 software. A p-value of <0.05 was considered statistically significant.

[2] = tested on: lipid peroxidation; parameters: method as in Shirai et al., 2001; conditions: 10 mM; ref Shirai et al., 2001; cited from earlier work
[3] = male, Sprague-Dawley, rat, plasma, 50 mg/kg, IQ group (oral IQ 50 mg/kg), rat plasma, labelled substance = analyte, mean of 5 rats
[4] = male, Sprague-Dawley, rat, plasma, 50 mg/kg, IQ group: oral IQ 50 mg/kg, rat plasma, mean ± SD, n = 5
[5] = male, Sprague-Dawley, rat, plasma, 50 mg/kg, QG group (oral QG 50 mg/kg), rat plasma, labelled substance = analyte, mean of 5 rats
[6] = male, Sprague-Dawley, rat, plasma, 50 mg/kg, QG group: oral QG 50 mg/kg, rat plasma, mean ± SD, n = 5
[7] = male, Sprague-Dawley, rat, plasma, 50 mg/kg, Qr group (oral Qr 50 mg/kg), rat plasma, labelled substance = analyte, mean of 5 rats
[8] = male, Sprague-Dawley, rat, plasma, 50 mg/kg, Qr group: oral Qr 50 mg/kg, rat plasma, mean ± SD, n = 5

AUC0−t ([1]; Qr group: oral Qr 50 mg/kg, rat plasma, mean ± SD, n = 5): 1,150.0 ± 454.2 mg/L*min
Shape of mean plasma concentration-time profile ([1]; after oral administration of QG 50 mg/kg): clear double peak phenomenon
concentration at 120 min ([1]; male, Sprague-Dawley, rat, plasma, oral, 50 mg/kg, IQ group (oral IQ 50 mg/kg), 120 min, individual rats NO. 1-5, read-out: Plasma concentrations): 872 ng/mL
AUC(0-t) ([1]; male, Sprague-Dawley, rat, plasma, 50 mg/kg, IQ group (oral IQ 50 mg/kg), rat plasma, labelled substance = analyte, individual rats No1-No5, read-out: AUC(0-t) (converted)): 8820 ng·h/mL
MRT last ([1]; male, Sprague-Dawley, rat, plasma, 50 mg/kg, IQ group (oral IQ 50 mg/kg), rat plasma, labelled substance = analyte, individual rats No1-No5, read-out: MRT(0-t) (converted)): 4.63 h
Tmax ([1]; male, Sprague-Dawley, rat, plasma, 50 mg/kg, IQ group (oral IQ 50 mg/kg), rat plasma, labelled substance = analyte, individual rats No1-No5): 0.5 h
AUC(0-t) ([1]; male, Sprague-Dawley, rat, plasma, 50 mg/kg, IQ group (oral IQ 50 mg/kg), rat plasma, labelled substance = analyte, mean of 5 rats, read-out: AUC(0-t) (converted)): 11200 ng·h/mL
CL/F [1, 3]: 70 mL/min/kg
Cmax [1, 3]: 3900 ng/mL
MRT last ([1]; male, Sprague-Dawley, rat, plasma, 50 mg/kg, IQ group (oral IQ 50 mg/kg), rat plasma, labelled substance = analyte, mean of 5 rats, read-out: MRT(0-t) (converted)): 5.93 h
Tmax [1, 3]: 0.5 h
half-life [1, 3]: 8.73 h
AUC(0-t) ([1]; male, Sprague-Dawley, rat, plasma, 50 mg/kg, IQ group: oral IQ 50 mg/kg, rat plasma, mean ± SD, n = 5, read-out: AUC0−t (converted)): 11200 ng·h/mL
Cmax [1, 4]: 3910 ± 1340 ng/mL
MRT last ([1]; male, Sprague-Dawley, rat, plasma, 50 mg/kg, IQ group: oral IQ 50 mg/kg, rat plasma, mean ± SD, n = 5, read-out: MRT0−t (converted)): 5.93 h
Tmax [1, 4]: 0.5 h
half-life [1, 4]: 8.72 ± 3.17 h
MRT last ([1]; male, Sprague-Dawley, rat, plasma, 50 mg/kg, QG group (oral QG 50 mg/kg), rat plasma, labelled substance = analyte, individual rats No1-No5, read-out: MRT(0-t) (converted)): 6.52 h
half-life ([1]; male, Sprague-Dawley, rat, plasma, 50 mg/kg, QG group (oral QG 50 mg/kg), rat plasma, labelled substance = analyte, individual rats No1-No5): 4.98 h
AUC(0-t) ([1]; male, Sprague-Dawley, rat, plasma, 50 mg/kg, QG group (oral QG 50 mg/kg), rat plasma, labelled substance = analyte, mean of 5 rats, read-out: AUC(0-t) (converted)): 16000 ng·h/mL
CL/F [1, 5]: 71 mL/min/kg
Cmax [1, 5]: 2040 ng/mL
MRT last ([1]; male, Sprague-Dawley, rat, plasma, 50 mg/kg, QG group (oral QG 50 mg/kg), rat plasma, labelled substance = analyte, mean of 5 rats, read-out: MRT(0-t) (converted)): 7.3 h
Tmax [1, 5]: 3.7 h
half-life [1, 5]: 6.27 h
AUC(0-t) ([1]; male, Sprague-Dawley, rat, plasma, 50 mg/kg, QG group: oral QG 50 mg/kg, rat plasma, mean ± SD, n = 5, read-out: AUC0−t (converted)): 16000 ng·h/mL
Cmax [1, 6]: 2040 ± 850 ng/mL
MRT last ([1]; male, Sprague-Dawley, rat, plasma, 50 mg/kg, QG group: oral QG 50 mg/kg, rat plasma, mean ± SD, n = 5, read-out: MRT0−t (converted)): 7.3 h
Tmax [1, 6]: 3.7 h
half-life [1, 6]: 6.27 ± 1.59 h
Tmax ([1]; male, Sprague-Dawley, rat, plasma, 50 mg/kg, Qr group (oral Qr 50 mg/kg), rat plasma, labelled substance = analyte, individual rats No1-No5): 0.5 h
AUC(0-t) ([1]; male, Sprague-Dawley, rat, plasma, 50 mg/kg, Qr group (oral Qr 50 mg/kg), rat plasma, labelled substance = analyte, mean of 5 rats, read-out: AUC(0-t) (converted)): 19200 ng·h/mL
CL/F [1, 7]: 43 mL/min/kg
Cmax [1, 7]: 6460 ng/mL
MRT last ([1]; male, Sprague-Dawley, rat, plasma, 50 mg/kg, Qr group (oral Qr 50 mg/kg), rat plasma, labelled substance = analyte, mean of 5 rats, read-out: MRT(0-t) (converted)): 5.27 h
Tmax [1, 7]: 0.7 h
half-life [1, 7]: 9.1 h
AUC(0-t) ([1]; male, Sprague-Dawley, rat, plasma, 50 mg/kg, Qr group: oral Qr 50 mg/kg, rat plasma, mean ± SD, n = 5, read-out: AUC0−t (converted)): 25800 ng·h/mL
Cmax [1, 8]: 6460 ± 2940 ng/mL
MRT last ([1]; male, Sprague-Dawley, rat, plasma, 50 mg/kg, Qr group: oral Qr 50 mg/kg, rat plasma, mean ± SD, n = 5, read-out: MRT0−t (converted)): 5.26 h
Tmax [1, 8]: 0.7 h
half-life [1, 8]: 9.1 ± 7.28 h
SMILES: O=C(O)[C@H]1O[C@@H](Oc2c(-c3ccc(O)c(O)c3)oc3cc(O)cc(O)c3c2=O)[C@H](O)[C@@H](O)[C@@H]1O [QG, Quercetin-3-O-β-D-glucuronide]
Inhibition of lipid peroxidation [2]: can inhibit lipid peroxidation
